Assay results as given in patent US20190216751A1, “Compositions and Methods for the Treatment and Prevention of Cancer” (California State University Northridge, priority 2017, published 2019).

How the values were obtained:
[1] = system: eIF5A localization in 4T1 cells; assay: Immunofluorescence, subcellular localization of total eIF5A; type: cell-based, mouse; conditions: 10 μM each drug, 48 hours
Excerpt: The next research questions revolved around asking how TGFβ is regulating eIF5A and what other proteins might be involved to completely block TGFβ-induced EMT. This led to histone deacetylase enzyme 6 (HDAC6). HDAC6 has been previously reported to be responsible for the deacetylation of eIF5A in the nucleus in order to make it readily available for hypusination and later transport out in the cytoplasm for functioning as a translation factor. To determine if it were possible to further increase the efficacy or potency of GC7, the inventors co-treated with Tubastatin A (an HDAC6 inhibitor) in 4T1 and 67NR cells as well as MDA-MB-468 cells which initially were not very sensitive to GC7. Triple negative human breast cancer cell line, BT547, was also used to see if another cell line representative of this breast cancer subtype was sensitive towards DHPS and HDAC6 inhibition. (FIGS. 5A and 5B). Here, are shown cell viability graphs for these four cell lines pretreated with GC7 at 1 μM and after 12 hours were exposed to various concentrations of Tubastatin A (TubA) ranging from 0.1 nM to 100 μM. […] MDA-MB-468 and BT549 cells remained to be insensitive to TubA with or without GC7 pretreatment (FIG. 5A). […]

hypusinated eIF5A = assay: Western blot hypusine versus total eIF5A; type: cell-based, mouse, human
Protocol: The inventors sought to determine if the decrease in cell viability is due to the inhibition of post translational modification of eIF5A. To test this, all cell lines were treated with GC7 at 100 μM for 48 hours—which were the time point and concentration at which a decrease in cell viability was seen (FIG. 2B). The inventors then collected, performed a western blot and immunoblotted for hypusine, total eIF5A and β-actin as a loading control (FIG. 3A). […] To test if this effect is dose-dependent, 4T1, 67NR and MCF10CA1a cells were treated with various concentrations of GC7 ranging from 0.1 μM to 100 μM. Protein lysates were then collected after 48 hours of treatment and performed a western blot. […] To validate this in breast cancer cells, the inventors immunoblotted for PEAK1 as well as E-cadherin, hypusine, total eIF5A and β-actin as a loading control (FIG. 3B). […] The inventors next looked at cell viability at lower concentrations of GC7, such as 1 μM and 10 μM, where a decrease in hypusinated eIF5A is still achieved but the decrease in cell viability is not as great in lower concentrations that do still target hypusinated eIF5A (FIG. 3C).
Cell lines were plated in a 6 well plate at 1e5 cells/mL and left to attach overnight. […] Protein concentrations were determined using Bradford Assay. […] Band intensity graphs were quantified using Fiji software after image thresholding.

SMILES: N=C(N)NCCCCCCCN.O=S(=O)(O)O [GC7, N1-Guanyl-1,7-diaminoheptane]
- localization of total eIF5A [1]: predominantly cytoplasmic
- decrease in hypusinated eIF5A protein activity (hypusinated eIF5A; 100 μM GC7, 48 hours, 4T1, 67NR, MCF10AT1k, MCF10CA1h and MCF10CA1a): largest decrease in hypusinated eIF5A protein activity
- hypusinated eIF5A levels (band intensity ratio to total eIF5A) (hypusinated eIF5A; GC7 0.1 μM to 100 μM, 48 hours, 4T1, 67NR and MCF10CA1a): consistently decreased
